Our source for the Km and kcat values is publication PMC2644789, “Dissection of Kinesin's Processivity” (PLoS ONE, 2009).

Common to all, as to format: biochemical, Neurospora crassa
The test system of data set [1] is T1, Head3/Neck1.
T1 construct: gene NcKin3; fusion in one polypeptide: NcKin3 residues 1-429 (motor and neck-linker) replacing the head of NcKin436 (NcKin head elsewhere 1-342); C-terminal PSIVHRKCF (cys) or hTail; dimer; with Kinesin heavy chain
The data set is described as follows: stopped-flow light scattering, ATP-induced microtubule detachment. The following applies: dissociation of preformed apyrase-treated kinesin-microtubule complex, 0.4 µM complex, 0-1000 µM ATP; read-out: Detachment / K0.5,ATP. From the text:
stopped-flow light scattering, ATP-induced microtubule detachment on Head3/Neck1

For data set [2], the system named is T2, Head1/Neck3.
T2 construct: gene NcKin; fusion in one polypeptide: NcKin residues 1-342 (motor and neck-linker) replacing the N-terminal 427 residues of NcKin3_558; C-terminal PSIVHRKCF (cys) or hTail; dimer; with Kinesin-3 motor protein NcKin3
The data set is described as follows: coupled enzymatic steady-state ATPase assay. The following applies: microtubule-activated (pig brain tubulin), 12.5 mM Aces-KOH, 25 mM potassium acetate, 5 mM MgCl2, EGTA, pH 6.8, 22°C; read-out: Steady state ATPase / KM,ATP. From the text: coupled enzymatic steady-state ATPase assay on Head1/Neck3

Data set [3] has as its system T1, Head3/Neck1. The experiment in a line: coupled enzymatic steady-state ATPase assay. Particulars: microtubule-activated (pig brain tubulin), 12.5 mM Aces-KOH, 25 mM potassium acetate, 5 mM MgCl2, EGTA, pH 6.8, 22°C; read-out: Steady state ATPase / KM,ATP. From the text: coupled enzymatic steady-state ATPase assay on Head3/Neck1
Substrate in data set [4]: Nc1ncnc2c1ncn2[C@@H]1O[C@H](COP(=O)(O)OP(=O)(O)OP(=O)(O)O)[C@@H](O)[C@H]1O
The experiment in a line: coupled enzymatic steady-state ATPase assay. Particulars: microtubule-activated (pig brain tubulin), 12.5 mM Aces-KOH, 25 mM potassium acetate, 5 mM MgCl2, EGTA, pH 6.8, 22°C. From the text: coupled enzymatic steady-state ATPase assay on NcKin (NcKin436; wildtype reference)

In the case of `Nc1ncnc2c1ncn2[C@@H]1O[C@H](COP(=O)(O)OP(=O)(O)OP(=O)(O)O)[C@@H](O)[C@H]1O` [ATP], the Km amounted to 105 ± 26.6 µM in data set [1], 33.1 ± 4.6 µM in data set [2] and 49.1 ± 1.3 µM in data set [3].

B1: NcKin (NcKin436; wildtype reference) (Neurospora crassa OR74A) (protein)
chain: MSSSANSIKVVARFRPQNRVEIESGGQPIVTFQGPDTCTVDSKEAQGSFTFDRVFDMSCKQSDIFDFSIKPTVDDILNGYNGTVFAYGQTGAGKSYTMMGTSIDDPDGRGVIPRIVEQIFTSILSSAANIEYTVRVSYMEIYMERIRDLLAPQNDNLPVHEEKNRGVYVKGLLEIYVSSVQEVYEVMRRGGNARAVAATNMNQESSRSHSIFVITITQKNVETGSAKSGQLFLVDLAGSEKVGKTGASGQTLEEAKKINKSLSALGMVINALTDGKSSHVPYRDSKLTRILQESLGGNSRTTLIINCSPSSYNDAETLSTLRFGMRAKSIKNKAKVNAELSPAELKQMLAKAKTQITSFENYIVNLESEVQVWRGGETVPKEKWVPPLELAITPSKSASTTARPSTPSRLLPESRAETPAISDRAGTPSLPLDKDE
notes: C-terminally truncated NcKin436 (motor, neck-linker, neck coiled coil, partial stalk), expressed from pT7 vector; C-terminal reactive-cysteine peptide … or hTail; dimer
B1: in data set [4], the Km came to 64.5 ± 20.4 µM and the turnover number (kcat) (usually the maximal rate divided by the concentration of active sites) is 66.9 ± 18.1 s⁻¹.
